The record followed here is patent publication US20160362416A1, “ANTIVIRAL COMPOUNDS” (Gilead Sciences, Inc., priority 2012, published 2016).

For series [1], the system named is stable HCV 1b RLuc replicon cells (genotype 1b Con1 replicon). Description: HCV genotype 1b RLuc replicon reporter assay. It is filed as cell-based. The following applies: Hepatitis C virus; stable genotype 1b Con1 RLuc replicon cells, 72 hours. In outline:
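Chimeric replicons for 3a and 4a use a Pi-RLuc reporter and were transiently transfected into Huh-Lunet cells; the 2b chimera (RLuc-Neo) was likewise transient in Huh-Lunet; 1b cells are stable. Cells were exposed to 3-fold serial compound dilutions for 72 h, then lysed. EC50s came from non-linear regression of Renilla luciferase signal.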

Series [2] concerns stable HCV 2a JFH-1 Rluc replicon cells (L31 present in NS5A). Description: HCV genotype 2a JFH-1 RLuc replicon reporter assay. It is filed as cell-based. The settings on record: Hepatitis C virus, 72 h, read-out: 2a JFH (nM). Background: Replicon systems follow genome replication, usually without infectious particles.
Series [3] is described as follows: IV and PO single dose pharmacokinetic studies in SD rats. It is filed as in vivo. The following applies: Sprague-Dawley, rat, plasma, male SD rats, IV infusion 1 mg/kg, oral gavage 2 mg/kg, read-out: Rat % F. A digest of the protocol: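 Fasted male Sprague-Dawley rats (n=3/group) dosed IV by 30-min jugular infusion at 1 mg/kg or by oral gavage at 2 mg/kg, in ethanol/PEG 400 vehicles at pH 2.0–2.2. Serial plasma to 24 h quantified by LC/MS/MS (SRM); non-compartmental analysis, linear-trapezoidal AUC, %F as oral vs IV AUC.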

In series [4] the test system is Y93H in genotype 1a NS5A replicon. Description: Resistance mutant replicon assay, genotype 1a NS5A Y93H. It is filed as cell-based, HCV. The following applies: Hepatitis C virus, read-out: 1a Y93H (nM). A digest of the protocol: (§1)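 Mutations introduced by site-directed mutagenesis into 1a or 1b Pi-RLuc replicons (3a Y93H in 1b Con1 chimera carrying 3a S52 NS5A), RNA transiently transfected into Huh-7-derived cured-51 cells. 3-fold compound dilutions; Renilla luciferase read after 72 h; EC50 by non-linear regression.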

Series [5] relates to stable HCV 1a RLuc replicon cells (genotype 1a H77 replicon). Nature of the series: HCV genotype 1a RLuc replicon reporter assay. It is filed as cell-based. The settings on record: Hepatitis C virus; stable genotype 1a H77 RLuc replicon cells, 72 hours.
In series [6] the test system is L31V/Y93H in genotype 1b NS5A replicon. Description: Resistance mutant replicon assay, genotype 1b NS5A L31V/Y93H. In kind it is cell-based, HCV. The following applies: Hepatitis C virus, read-out: 1b L31V/Y93H (nM). A digest of the protocol: as §1

pEC50: −log10 of the molar value.

A word on the pEC50: it is −log10 of the EC50, conventionally taken in molar units. `COC(=O)N[C@H](C(=O)N1[C@@H](C)CC[C@H]1c1ncc(-c2ccc3c(c2)COc2cc4c(ccc5nc([C@@H]6CC[C@H](C)N6C(=O)[C@@H](NC(=O)OC)C6CC(C)O[C@H](C)C6)[nH]c54)cc2-3)[nH]1)C(C)C` (stereo in doubt) [Example AQ, Methyl {(2S)-1-[(2S,5S)-2-(5-{2-[(2S,5S)-1-{(2S)-2-[(2R,6R)-2,6-dimethyltetrahydro-2H-pyran-4-yl]-2-[(methoxycarbonyl)amino]acetyl}-5-methylpyrrolidin-2-yl]-1,11-dihydroisochromeno[4′,3′:6,7]naphtho[1,2-d]imidazol-9-yl}-1H-imidazol-2-yl)-5-methylpyrrolidin-1-yl]-3-methyl-1-oxobutan-2-yl}carbamate]: the negative-log EC50 (pEC50) in series [1] is 10.54; in series [5], 10.72. Moreover, the EC50 in series [2] was determined as 0.016 nM; in series [4], 0.206 nM; in series [6] it was 0.908 nM. For the same molecule, the bioavailability in series [3] was 22.9%.

On to `CC[C@H]1CC[C@@H](c2nc3ccc4cc5c(cc4c3[nH]2)OCc2cc(-c3cnc([C@@H]4CC[C@H](C)N4C(=O)[C@@H](NC(=O)OC)C(C)C)[nH]3)ccc2-5)N1C(=O)[C@@H](NC(=O)OC)C1CCOCC1` [Comp 3, reference compound], for which the pEC50 in series [1] was 10.59; in series [5], 10.68. The figures for the EC50 in series [2] and in series [4] were 0.019 nM and 2.54 nM, respectively. In addition, the bioavailability in series [3] amounted to 46.6%.

As for `CC[C@H](C)[C@H](NC(=O)OC)C(=O)N1[C@@H](C)CC[C@H]1c1ncc(-c2ccc3c(c2)COc2cc4c(ccc5nc([C@@H]6CC[C@H](C)N6C(=O)[C@@H](NC(=O)OC)C6CCOCC6)[nH]c54)cc2-3)[nH]1` [Comp 4, reference compound], the pEC50 is 10.55 in series [1] and 10.64 in series [5]. For the same molecule, the values for the EC50 in series [2] and in series [4] were 0.018 nM and 0.978 nM, respectively. Also, the bioavailability in series [3] was 22.1%.

For `CC[C@H](C)[C@H](NC(=O)OC)C(=O)N1[C@@H](C)CC[C@H]1c1nc2ccc3cc4c(cc3c2[nH]1)OCc1cc(-c2cnc([C@@H]3CC[C@H](C)N3C(=O)[C@@H](NC(=O)OC)C3CCOCC3)[nH]2)ccc1-4` [Comp 12, reference compound], the negative-log EC50 (pEC50) was 10.66 in series [1] and 10.89 in series [5]. Moreover, the values for the EC50 in series [2], in series [4] and in series [6] were 0.009 nM, 1.24 nM and 0.097 nM, respectively. Moreover, the bioavailability in series [3] is 5.64%.

Regarding `CC[C@H](C)[C@H](NC(=O)OC)C(=O)N1[C@@H](C)CC[C@H]1c1ncc(-c2ccc3c(c2)COc2cc4c(ccc5nc([C@@H]6CC[C@H](C)N6C(=O)[C@@H](NC(=O)OC)C6C[C@@H](C)O[C@H](C)C6)[nH]c54)cc2-3)[nH]1` (stereo partly drawn) [Example AA, Methyl {(2S,3S)-1-[(2S,5S)-2-(5-{2-[(2S,5S)-1-{(2S)-2-[(2R,6R)-2,6-dimethyltetrahydro-2H-pyran-4-yl]-2-[(methoxycarbonyl)amino]acetyl}-5-methylpyrrolidin-2-yl]-1,11-dihydroisochromeno[4′,3′:6,7]naphtho[1,2-d]imidazol-9-yl}-1H-imidazol-2-yl)-5-methylpyrrolidin-1-yl]-3-methyl-1-oxopentan-2-yl}carbamate], the figures for the pEC50 in series [1] and in series [5] were 10.77 and 10.80, respectively. The EC50 in series [2] came out at 0.011 nM; in series [4], 0.322 nM; in series [6] it was 0.498 nM. For the same molecule, the bioavailability in series [3] came to 28.1%.

As to `COC(=O)N[C@H](C(=O)N1[C@@H](C)CC[C@H]1c1ncc(-c2ccc3c(c2)COc2cc4c(ccc5nc([C@@H]6CC[C@H](C)N6C(=O)[C@@H](NC(=O)OC)[C@H]6C[C@@H](C)O[C@@H](C)C6)[nH]c54)cc2-3)[nH]1)C(C)C` [Example AM, Methyl {(2S)-1-[(2S,5S)-2-(5-{2-[(2S,5S)-1-{(2S)-2-[(2R,6S)-2,6-dimethyltetrahydro-2H-pyran-4-yl]-2-[(methoxycarbonyl)amino]acetyl}-5-methylpyrrolidin-2-yl]-1,11-dihydroisochromeno[4′,3′:6,7]naphtho[1,2-d]imidazol-9-yl}-1H-imidazol-2-yl)-5-methylpyrrolidin-1-yl]-3-methyl-1-oxobutan-2-yl}carbamate], the results for the pEC50 in series [1] and in series [5] were 10.85 and 11.05, respectively. Also, the EC50 came out at 0.005 nM in series [2] and 11.6 nM in series [6]. Also, the bioavailability in series [3] turned out to be 21.9%.

For the molecule `COC(=O)N[C@H](C(=O)N1[C@@H](C)CC[C@H]1c1nc2ccc3cc4c(cc3c2[nH]1)OCc1cc(-c2cnc([C@@H]3CC[C@H](C)N3C(=O)[C@@H](NC(=O)OC)[C@H]3C[C@@H](C)O[C@@H](C)C3)[nH]2)ccc1-4)C(C)C` [Example AO, Methyl {(2S)-1-[(2S,5S)-2-(9-{2-[(2S,5S)-1-{(2S)-2-[(2R,6S)-2,6-dimethyltetrahydro-2H-pyran-4-yl]-2-[(methoxycarbonyl)amino]acetyl}-5-methylpyrrolidin-2-yl]-1H-imidazol-5-yl}-1,11-dihydroisochromeno[4′,3′:6,7]naphtho[1,2-d]imidazol-2-yl)-5-methylpyrrolidin-1-yl]-3-methyl-1-oxobutan-2-yl}carbamate], the pEC50 is 10.82 in series [1] and 10.92 in series [5]. Moreover, the EC50 in series [2] was 0.008 nM; in series [6] it was 17.5 nM. In addition, the bioavailability in series [3] was 50.3%.

With `COC(=O)N[C@H](C(=O)N1[C@@H](C)CC[C@H]1c1nc2ccc3cc4c(cc3c2[nH]1)OCc1cc(-c2cnc([C@@H]3CC[C@H](C)N3C(=O)[C@@H](NC(=O)OC)C3C[C@@H](C)O[C@H](C)C3)[nH]2)ccc1-4)C(C)C` (stereo partly shown) [Example AS], the negative logarithm of the EC50 (pEC50) in series [1] is 10.35; in series [5], 10.59. Also, the EC50 was 0.028 nM in series [2], 0.148 nM in series [4] and 2.03 nM in series [6]. Further, the bioavailability in series [3] worked out at 17.4%.

Regarding `COC(=O)N[C@H](C(=O)N1[C@@H](C)CC[C@H]1c1ncc(-c2ccc3c(c2)COc2cc4c(ccc5nc([C@@H]6CC[C@H](C)N6C(=O)[C@@H](NC(=O)OC)C6C[C@@H](C)O[C@H](C)C6)[nH]c54)cc2-3)[nH]1)C1C[C@@H](C)O[C@H](C)C1` (stereo partly drawn) [Example AU, Methyl {(1S)-1-[(2R,6R)-2,6-dimethyltetrahydro-2H-pyran-4-yl]-2-[(2S,5S)-2-(5-{2-[(2S,5S)-1-{(2S)-2-[(2R,6R)-2,6-dimethyltetrahydro-2H-pyran-4-yl]-2-[(methoxycarbonyl)amino]acetyl}-5-methylpyrrolidin-2-yl]-1,11-dihydroisochromeno[4′,3′:6,7]naphtho[1,2-d]imidazol-9-yl}-1H-imidazol-2-yl)-5-methylpyrrolidin-1-yl]-2-oxoethyl}carbamate], the pEC50 in series [1] is 10.41; in series [5] it was 10.54. Besides, the EC50 in series [2] turned out to be 0.013 nM; in series [4] it was 0.026 nM; in series [6], 0.059 nM. Besides, in series [3], the bioavailability was determined as 16.4%.

For `COC[C@H]1C[C@@H](c2ncc(-c3ccc4c(c3)COc3cc5c(ccc6nc([C@@H]7CC[C@H](C)N7C(=O)[C@@H](NC(=O)OC)C7C[C@@H](C)O[C@H](C)C7)[nH]c65)cc3-4)[nH]2)N(C(=O)[C@@H](NC(=O)OC)C2C[C@@H](C)O[C@H](C)C2)C1` (stereo partly drawn) [Example BH, Methyl {(1S)-1-[(2R,6R)-2,6-dimethyltetrahydro-2H-pyran-4-yl]-2-[(2S,5S)-2-(9-{2-[(2S,4S)-1-{(2S)-2-[(2R,6R)-2,6-dimethyltetrahydro-2H-pyran-4-yl]-2-[(methoxycarbonyl)amino]acetyl}-4-(methoxymethyl)pyrrolidin-2-yl]-1H-imidazol-5-yl}-1,11-dihydroisochromeno[4′,3′:6,7]naphtho[1,2-d]imidazol-2-yl)-5-methylpyrrolidin-1-yl]-2-oxoethyl}carbamate], the pEC50 is 9.93 in series [1] and 10.28 in series [5]. In addition, the values for the EC50 in series [2] and in series [4] were 0.013 nM and 0.04 nM, respectively. The bioavailability in series [3] amounted to 2.7%.
